Assay results from ChEMBL document CHEMBL3120068, “Identification of diverse natural products as falcipain-2 inhibitors through structure-based virtual screening” (Bioorg Med Chem Lett, 2014).

Legend:
[1] = Inhibition of recombinant Plasmodium falciparum falcipain 2 after 30 mins by fluorescence assay
Plasmodium falciparum [2] = assay: Antiplasmodial activity against chloroquine-resistant blood stage Plasmodium falciparum Dd2 after 72 hrs by SYBR Green I-based fluorescence assay; assay type: functional, organism-based; conditions: Dd2, 72 h
Plasmodium falciparum [3] = assay: Antiplasmodial activity against chloroquine-sensitive blood stage Plasmodium falciparum 3D7 after 72 hrs by SYBR Green I-based fluorescence assay; assay type: functional, organism-based; conditions: 3D7, 72 h

Row | Structure (SMILES) | IC50 [1] [µM] | IC50 (Plasmodium falciparum [2]) [µM] | IC50 (Plasmodium falciparum [3]) [µM]
1 | CCCCOC(=O)[C@H]1c2c(/C=C/C(=O)O[C@H](Cc3ccc(O)c(O)c3)C(=O)O)ccc(O)c2O[C@@H]1c1ccc(O)c(O)c1 | 3.18 | – | –
2 | C[C@@H]1CC[C@H]2[C@@H](C)C(=O)O[C@@H]3O[C@@]4(C)CC[C@@H]1[C@]32OO4 [ARTEMISININ] | – | 0.049 | 0.04
3 | C[C@@H]1O[C@@H](O[C@H]2[C@H](O)[C@@H](COC(=O)/C=C/c3ccc(O)c(O)c3)O[C@H]3OC[C@H](c4ccc(O)c(O)c4)O[C@@H]32)[C@H](O)[C@H](O)[C@H]1O [ISOCRENATOSIDE] | 53.1 | 93.1 | > 50
4 | CCOC(=O)c1c(O)cc(O)c2c1OC(c1ccc(O)cc1)CC2 (configuration not stated) | 9.12 | 86.8 | 60.3
5 | COC(=O)[C@@H](Cc1ccc(O)c(O)c1)OC(=O)/C=C/c1ccc(O)c2c1[C@H](C(=O)OC)[C@@H](c1ccc(O)c(O)c1)O2 [DIMETHYL LITHOSPERMATE] | 3.77 | – | –
6 | COc1cc(O[C@@H]2O[C@H](CO[C@@H]3OC[C@@H](O)[C@H](O)[C@H]3O)[C@@H](O)[C@H](O)[C@H]2O)c2c(=O)cc(-c3ccc(O)cc3)oc2c1 | 17.1 | > 500 | > 250
7 | O=C1c2c(O)cc(O)cc2O[C@H](c2cc(O)c(O)c(O)c2)[C@@H]1O | 44.8 | > 50 | 75.5
8 | CC(C)C[C@H](NC(=O)[C@H]1O[C@@H]1C(=O)O)C(=O)NCCCCN=C(N)N [E-64] | 0.017 | – | –
9 | COc1cc(-c2oc3cc(O)cc(O)c3c(=O)c2O[C@@H]2O[C@H](COC(C)=O)[C@@H](O)[C@H](O)[C@H]2O)cc(OC)c1O | 68.2 | – | –
10 | O=C1c2c(O)cc(O)cc2O[C@H](c2ccc(O)c(O)c2)[C@H]1O [TAXIFOLIN] | 56.9 | 55 | 48.2
11 | O=C1c2c(O)cc(O)cc2O[C@@]2(c3ccc(O)cc3)Oc3cc(O)c4c(c3[C@]12O)O[C@H](c1ccc(O)cc1)CC4 | 5.23 | 66.7 | 60.6
12 | O=c1c(O[C@@H]2O[C@H](CO)[C@@H](O)[C@H](O)[C@H]2O)c(-c2ccc(O)c(O)c2)oc2cc(O)cc(O)c12 [ISOQUERCETIN] | 15.7 | 4.05 | 5.54
